From paper PMC9410882, “Identification of a novel deFADding activity in human, yeast and bacterial 5′ to 3′ exoribonucleases” (Nucleic Acids Research, 2022)

Key:
Xrn1 (Kl Xrn1) = target: T1, Xrn1 (Kl Xrn1) (Kluyveromyces lactis, UniProt Q6CJ09); assay: inhibition of decay of […]-labelled capped RNA, gel; type: biochemical; conditions: FAD-capped or NAD-capped RNA as substrate
T1 construct: gene KLLA0_F22385g; recombinant, Ni-NTA purified

RNase AM (yciV) = target: T2, RNase AM (yciV) (Escherichia coli, UniProt P77766); assay: thermal shift assay; type: binding; conditions: Mn2+-loaded enzyme; data not shown
T2 construct: gene rnm; full-length, His-tagged, expressed in E. coli BL21 (DE3) Rosetta with 2,2'-bipyridyl and MnSO4; Ni-NTA and gel filtration
T2 sequence (P77766 1-293): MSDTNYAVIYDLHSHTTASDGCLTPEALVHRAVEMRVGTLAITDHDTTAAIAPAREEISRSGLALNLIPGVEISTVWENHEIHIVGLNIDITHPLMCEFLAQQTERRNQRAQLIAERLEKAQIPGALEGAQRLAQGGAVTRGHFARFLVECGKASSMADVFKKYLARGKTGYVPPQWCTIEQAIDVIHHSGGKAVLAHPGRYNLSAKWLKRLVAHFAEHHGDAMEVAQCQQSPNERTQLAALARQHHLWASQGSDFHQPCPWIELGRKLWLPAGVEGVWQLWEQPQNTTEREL

Kl Xrn1 = target: T3, Kl Xrn1 (Kluyveromyces lactis, UniProt Q6CJ09 1-1245); assay: EMSA; stable complex, minimally competed by total yeast RNA; EMSA: 10 mM Tris-HCl pH 7.5, 150 mM KCl, 1.5 mM MgCl2, 0.5 mM DTT, on ice 30 min, 5 pmol RNA with 2.5-7.5 pmol Xrn1, 6% gel in 0.5x TBE; FcRAP: 1x lysis buffer, 4 C, 90 min; conditions: protein: recombinant; tags: C-terminal 6xHis; label: 32P uniform; single strand
T3 sequence: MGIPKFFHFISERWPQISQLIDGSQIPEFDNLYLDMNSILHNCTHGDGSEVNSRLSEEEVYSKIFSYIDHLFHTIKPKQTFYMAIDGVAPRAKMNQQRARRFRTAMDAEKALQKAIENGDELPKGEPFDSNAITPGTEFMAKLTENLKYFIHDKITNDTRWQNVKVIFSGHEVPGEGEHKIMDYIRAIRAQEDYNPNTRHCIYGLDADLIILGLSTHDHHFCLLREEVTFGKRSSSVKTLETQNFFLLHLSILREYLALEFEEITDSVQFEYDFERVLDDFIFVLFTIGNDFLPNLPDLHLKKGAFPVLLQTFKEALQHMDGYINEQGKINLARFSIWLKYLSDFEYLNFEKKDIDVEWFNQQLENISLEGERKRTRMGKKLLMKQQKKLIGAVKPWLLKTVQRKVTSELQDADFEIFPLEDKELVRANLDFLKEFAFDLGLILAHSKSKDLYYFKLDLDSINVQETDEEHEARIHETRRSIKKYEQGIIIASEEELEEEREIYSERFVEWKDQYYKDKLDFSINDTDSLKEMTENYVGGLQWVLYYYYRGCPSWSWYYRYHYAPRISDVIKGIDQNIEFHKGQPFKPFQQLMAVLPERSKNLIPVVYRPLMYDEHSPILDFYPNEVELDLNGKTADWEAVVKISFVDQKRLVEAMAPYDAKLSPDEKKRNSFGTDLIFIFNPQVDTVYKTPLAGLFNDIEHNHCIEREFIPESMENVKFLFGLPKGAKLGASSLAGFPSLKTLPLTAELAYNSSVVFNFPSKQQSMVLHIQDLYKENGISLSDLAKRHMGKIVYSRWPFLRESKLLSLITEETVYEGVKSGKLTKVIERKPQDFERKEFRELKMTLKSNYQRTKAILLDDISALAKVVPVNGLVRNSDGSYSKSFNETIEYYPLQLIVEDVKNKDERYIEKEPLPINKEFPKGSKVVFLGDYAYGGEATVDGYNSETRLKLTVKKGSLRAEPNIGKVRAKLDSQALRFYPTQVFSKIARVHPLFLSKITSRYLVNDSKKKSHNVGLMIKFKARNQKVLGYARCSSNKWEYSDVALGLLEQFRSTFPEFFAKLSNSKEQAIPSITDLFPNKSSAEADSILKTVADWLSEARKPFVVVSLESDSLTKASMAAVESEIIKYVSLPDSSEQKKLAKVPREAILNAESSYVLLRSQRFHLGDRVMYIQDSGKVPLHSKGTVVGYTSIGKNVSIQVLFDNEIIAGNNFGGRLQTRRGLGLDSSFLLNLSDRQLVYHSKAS

**Q.** `Cc1cc2nc3c(=O)[nH]c(=O)nc-3n(C[C@H](O)[C@H](O)[C@H](O)COP(=O)(O)OP(=O)(O)OC[C@H]3O[C@@H](n4cnc5c(N)ncnc54)[C@H](O)[C@@H]3OP(=O)(O)O)c2cc1C` [FAD3′P] was tested. Which inhibition (Xrn1 (Kl Xrn1)) did it give?
**A.** Its inhibition is “the effect was more pronounced with the FAD-capped RNA mimic, FAD3′P”.

**Q.** How did the thermal shift (RNase AM (yciV)) turn out when `Cc1cc2nc3c(=O)[nH]c(=O)nc-3n(C[C@H](O)[C@H](O)[C@H](O)COP(=O)(O)OP(=O)(O)OC[C@H]3O[C@@H](n4cnc5c(N)ncnc54)[C@H](O)[C@@H]3O)c2cc1C` [FAD] was run?
**A.** Its thermal shift is “competent for binding FAD (as determined by thermal shift assay; data not shown)”.

**Q.** And the inhibition (Xrn1 (Kl Xrn1); free FAD)?
**A.** The inhibition was “inhibition was nevertheless detected when using higher concentration of FAD”.

**Q.** Does AGUUGGUGGUUGUUGUGUGUUUGUGGUUGGUUUGUUUGGC (ssRNA, 5' FAD cap) [FAD-capped RNA (FAD-40)] bind (Kl Xrn1)?
**A.** Result: binds

**Q.** Does AGUUGGUGGUUGUUGUGUGUUUGUGGUUGGUUUGUUUGGC (ssRNA, 5' NAD cap) [NAD-capped RNA (NAD-40)] bind (Kl Xrn1)?
**A.** Result: binds
